{
  "source": "patent US4554367A",
  "about": "“Phosphonium organohalogenostannates-IV” (priority 1982, dated 1985)",
  "tested_on": "Aureobasidium pullans",
  "assay": "Growth on wood",
  "settings": "28° C., 4 weeks",
  "description": "Small wooden blocks of spruce, 7×10×10 mm in size, are dried under a vacuum for 30 minutes. The small blocks are then subjected to impregnation under a vacuum, by being left in 20 ml of distilled water and the biocide under vacuum for 30 minutes, and are then exposed to pressure treatment (2 atmospheres gauge by compressed air) in water for 18 hours. The pieces of wood thus treated are either immediately dried or first subjected to bleaching in running water and then dried.\nThe small dried pieces of wood are placed on potato glucose agar and the wood and surrounding agar are innoculated with 0.1 ml of a spore suspension of Aureobasidium pullans. After incubation at 28° C. for 4 weeks, the growth is evaluated according to the following plan.\n4=No growth on the wood, inhibitory zone up to 2 mm\n5=No growth on the wood, inhibitory zone greater than 2 mm",
  "data": [
    {"compound": "OC[P+](CO)(CO)CO.[Cl][Sn-]([Cl])([CH]1CCCCC1)([CH]1CCCCC1)[CH]1CCCCC1", "note": "[Example 26]", "values": [
      {"measurement": "Growth on wood, leached for 5 days", "setting": "0.01% in H2O", "value": "4 (No growth on the wood, inhibitory zone up to 2 mm)"},
      {"measurement": "Growth on wood, not leached", "setting": "0.01% in H2O", "value": "5 (No growth on the wood, inhibitory zone greater than 2 mm)"},
      {"measurement": "Growth on wood, leached for 5 days", "setting": "0.05% in H2O", "value": "5 (No growth on the wood, inhibitory zone greater than 2 mm)"},
      {"measurement": "Growth on wood, not leached", "setting": "0.05% in H2O", "value": "5 (No growth on the wood, inhibitory zone greater than 2 mm)"}
    ]}
  ]
}
